Assay results published in patent US20180071317A1, “USE OF AGENTS THAT ALTER THE PERITUMORAL ENVIRONMENT FOR THE TREATMENT OF CANCER” (SERVICIO ANDALUZ DE SALUD, priority 2011, published 2018).

Tests used:
polymorphonuclear cells = assay: Marker expression (immunohistochemistry) in polymorphonuclear blood cells with SP alone or with NK1 antagonists; format: cell-based, human; settings: SP 1 μM + antagonist 1 μM; 48 h
Description: Briefly, heparinized blood from healthy donors was centrifuged so as to separate the various components thereof. Red blood cells remained at the bottom of the tube. Above them was a small white layer composed of the white blood cells and above, on top of the tube, the blood plasma. The layer of white cells was distributed in a culture plate of 24 wells by adding in each the same concentration of blood plasma from the same donor, supplemented with 1% antibiotic-antimycotic (Invitrogen). In each well, approximately 1000 cells (PHF) skin from the dermis were further added, obtained as previously described in Example 2. […] After 48 hours of incubation, cells were collected and embedded in paraffin for expression analysis by immunohistochemical techniques (as described in Example 1).
The expression of TGF molecular markers (anti-TGF 2, SAB4502956) and NF-kB (anti-NF-kB, SAB4501992) using specific antibodies against them were analyzed. All antibodies used were rabbit polyclonal antibodies obtained from Sigma Aldrich and were used at a concentration of 1/1000. All experiments were carried out sixfold.

[1] = tested on: fibroblasts (PHF) co-cultured with tumor cells of human gastric adenocarcinoma (23132/87); assay: Marker expression (IHC) in PHF co-cultured with 23132/87 tumor cells; format: cell-based; settings: co-culture with 23132/87; SP 1 μM + antagonist 1 μM; 48 h;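 further: cultures grown in fresh plasma from a healthy human donor, values give the percentage of PHF fibroblasts positive for the marker, each experiment run in six replicates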
[2] = tested on: fibroblasts (PHF) co-cultured with human choriocarcinoma tumor cells (AC-1M32); assay: Marker expression (IHC) in PHF co-cultured with AC-1M32 tumor cells; format: cell-based; settings: co-culture with AC-1M32; SP 1 μM + antagonist 1 μM; 48 h;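 further: Read-out is the percentage of PHF fibroblasts positive for each marker, with cells grown in fresh healthy-donor blood plasma, six replicates, reference being fibroblasts cultured alone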
Description: (§1) All cultures were maintained 48 hours, following which the same cells were included in paraffin blocks for subsequent analysis of the expression of different markers by immunohistochemistry (see Example 1). […] All experiments were carried out sixfold. Analyzed markers in fibroblast cells (stromal cells) were: TGF-α, TGF-β1, TGF-β2, TGF-β3, SPARC, MMP-3, MMP-7, MMP-9, MMP-11, MMP-13 and MMP-14.

[3] = tested on: fibroblasts (PHF) co-cultured with tumor cells in human prostate carcinoma (22Rv1); assay: Marker expression (IHC) in PHF co-cultured with 22Rv1 tumor cells; format: cell-based; settings: co-culture with 22Rv1; SP 1 μM + antagonist 1 μM; 48 h;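 further: cultures grown on fresh plasma from a healthy donor, each experiment run sixfold, values give the percentage of fibroblasts positive for the given marker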
Description: as §1

[4] = tested on: fibroblasts of tumors produced by human glioma tumor line (GAMG); assay: Marker expression (IHC) in fibroblasts of tumor or peritumoral area, mouse model, GAMG; format: in vivo; settings: GAMG tumors in mice, 30 mg/kg/day oral, 7 days
Description: In vitro tests conducted in Example 5 are now carried out in an experimental model in mice in vivo. […] Subsequently, the expression in fibroblasts tumoral and peritumoral area of molecular markers associated with progression and maintenance of tumors: TGF-α, TGF-β1, TGF-β2, TGF-β3, MMP-7, MMP-11, MMP-14 were analyzed by immunohistochemistry.
Were injected with 2×10^7 cells tumors (corresponding, in each case to each of the tumor types as specified in Table 9) in 200 of PBS subcutaneously μl. […] Mice were randomized into two groups when the tumors reached a volume of 75 mm^3 One group was treated with non-peptide receptor antagonists NK1 and the other with placebo 200μ1. […] Tumors and samples of non-neoplastic stromal areas remote from the tumor were halved, formalin fixed (4%) and then were included in paraffin blocks for analysis by immunohistochemistry.
The expression on fibroblast cells obtained in the animal model was analyzed by immunohistochemistry, of the above markers: TGF-α, TGF-β1, TGF-β2, TGF-β3, MMP-7, MMP-1 1, MMP-14MP-14. Tables 32 to 35 depict the type of label used and the average percentage of fibroblasts present in non-tumor areas, tumor and peritumoral (±SD) which were expressing the marker shown in each of the tumor types developed from of the different cell lines used. This process was realized in mice treated with non-peptide antagonists of NK1 receptor and in untreated animals (control).

[5] = tested on: leukocyte cells (mono and polymorphonuclear) in co-culture with cells isolated from primary human tumors; assay: Marker expression (IHC) in leukocytes co-cultured with primary human tumor cells (colon, pancreatic, lung carcinoma, glioma, melanoma); format: cell-based; settings: SP 1 μM + antagonist 1 μM;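 further: tumor cells and leukocytes came from the same patients, co-culture contents were paraffin-embedded for immunohistochemistry with antibodies to TGF-β2 or NF-kB, leukocytes cultured alone served as control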
Description: To check that the interaction of the human primary tumor cells with cells of the immune/inflammatory (mono and polymorphonuclear leukocytes) cells, stimulates the secretion of substances of importance for survival and tumor progression, cultures were carried out using sets of immune cells/inflammatory (mono and polymorphonuclear leukocytes) with tumor cells obtained directly from primary human tumors of the same patients.
The same method described in Example 7 and 9 was used to obtain tumor cells from primary human tumors. Similarly cultured immune cells/inflammatory (mono and polymorphonuclear leukocytes) were used as control and secondly, cultured tumor cells isolated from patients in the presence of immune cells/inflammatory (mono and polymorphonuclear leukocytes).
Then, paraffin blocks were prepared with the contents of each of the groups mentioned previously for expression studies using immunohistochemistry. On this occasion, in order to identify the secretion of substances with importance for the survival and progression of tumor the following markers were analyzed: TGF-β2 (SAB4502956) and NF-kB (SAB4501992) using specific antibodies against them. All antibodies used were rabbit polyclonal antibodies obtained from Sigma Aldrich and were used at a concentration of 1/1000. Immunohistochemical techniques were performed and evaluated as described in previous examples.

[6] = co-culture with cells isolated from colon carcinoma
[7] = co-culture with cells isolated from glioma
[8] = co-culture with cells isolated from lung carcinoma
[9] = co-culture with cells isolated from melanoma
[10] = co-culture with cells isolated from pancreatic carcinoma

CC(=O)N1CCN([C@H]2CCN(C(=O)N(C)[C@H](C)c3cc(C(F)(F)F)cc(C(F)(F)F)c3)[C@@H](c3ccc(F)cc3C)C2)CC1 [Casopitant]
0%: polymorphonuclear cells expressing NF-kB (polymorphonuclear cells) | polymorphonuclear cells expressing TGF-β (polymorphonuclear cells) | PHF cells expressing MMP-3 [1] | PHF cells expressing MMP-7 [1] | PHF cells expressing MMP-9 [1] | PHF cells expressing MMP-11 [1] | PHF cells expressing MMP-13 [1] | PHF cells expressing MMP-14 [1] | PHF cells expressing SPARC [1] | PHF cells expressing TGF-α [1] | PHF cells expressing TGF-β1 [1] | PHF cells expressing TGF-β2 [1] | PHF cells expressing TGF-β3 [1] | PHF cells expressing MMP-3 [2] | PHF cells expressing MMP-7 [2] | PHF cells expressing MMP-9 [2] | PHF cells expressing MMP-11 [2] | PHF cells expressing MMP-13 [2] | PHF cells expressing MMP-14 [2] | PHF cells expressing SPARC [2] | PHF cells expressing TGF-α [2] | PHF cells expressing TGF-β1 [2] | PHF cells expressing TGF-β2 [2] | PHF cells expressing TGF-β3 [2] | PHF cells expressing MMP-3 [3] | PHF cells expressing MMP-7 [3] | PHF cells expressing MMP-9 [3] | PHF cells expressing MMP-11 [3] | PHF cells expressing MMP-13 [3] | PHF cells expressing MMP-14 [3] | PHF cells expressing SPARC [3] | PHF cells expressing TGF-α [3] | PHF cells expressing TGF-β1 [3] | PHF cells expressing TGF-β2 [3] | PHF cells expressing TGF-β3 [3] | fibroblasts expressing MMP-7 [4] | fibroblasts expressing MMP-11 [4] | fibroblasts expressing MMP-14 [4] | fibroblasts expressing TGF-α [4] | fibroblasts expressing TGF-β 1 [4] | fibroblasts expressing TGF-β 2 [4] | fibroblasts expressing TGF-β 3 [4] | Percentage of mononuclear leukocytes cells which expressed NF-kB [5, 6] | Percentage of mononuclear leukocytes cells which expressed TGF-β [5, 6] | Percentage of polymorphonuclear leukocytes cells which expressed NF-kB [5, 6] | Percentage of polymorphonuclear leukocytes cells which expressed TGF-β [5, 6] | Percentage of mononuclear leukocytes cells expressing NF-kB [5, 7] | Percentage of mononuclear leukocytes cells expressing TGF-β [5, 7] | Percentage of polymorphonuclear leukocytes cells expressing NF-kB [5, 7] | Percentage of polymorphonuclear leukocytes cells expressing TGF-β [5, 7] | Percentage of mononuclear leukocytes cells which expressed NF-kB [5, 8] | Percentage of mononuclear leukocytes cells which expressed TGF-β [5, 8] | Percentage of polymorphonuclear leukocytes cells which expressed NF-kB [5, 8] | Percentage of polymorphonuclear leukocytes cells which expressed TGF-β [5, 8] | Percentage of mononuclear leukocytes cells which expressed NF-kB [5, 9] | Percentage of mononuclear leukocytes cells which expressed TGF-β [5, 9] | Percentage of polymorphonuclear leukocytes cells which expressed NF-kB [5, 9] | Percentage of polymorphonuclear leukocytes cells which expressed TGF-β [5, 9] | Percentage of mononuclear leukocytes cells which expressed NF-kB [5, 10] | Percentage of mononuclear leukocytes cells which expressed TGF-β [5, 10] | Percentage of polymorphonuclear leukocytes cells which expressed NF-kB [5, 10] | Percentage of polymorphonuclear leukocytes cells which expressed TGF-β [5, 10]
